Test results reported in patent publication US20200024278A1, “COMPOSITION COMPRISING ANTIBIOTIC COMPOUND AND AN HETEROCYCLIC COMPOUND AND THEIR USE IN PREVENTING OR TREATING BACTERIAL INFECTIONS” (MUTABILIS, priority 2016, published 2020).

Assays:
Assay in all cases: MIC, broth microdilution (CLSI), substance alone or ATB combined with compound at 4 or 8 μg/mL
PAE UFR48 = assay type: cell-based, P. aeruginosa; conditions: PAE UFR48; for MIC ATB combined with Example: Example @8 μg/ml; for MIC ATB combined with Example compound: compound @8 μg/ml
Summary of the method: (§1)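 Per CLSI-M7-A7, MICs are determined in cation-adjusted Mueller-Hinton broth with a final inoculum of 5·10^5 CFU/mL. Plates incubate 16-20 h at 35° C in air and are read by eye. Fosfomycin assays carry 25 μg/ml glucose-6-phosphate.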

PAE UFR90 = assay type: cell-based, P. aeruginosa; conditions: PAE UFR90; for MIC ATB combined with Example: Example @8 μg/ml; for MIC ATB combined with Example compound: compound @8 μg/ml
Summary of the method: as §1

PAE 105250 = assay type: cell-based, P. aeruginosa; conditions: PAE 105250; for MIC ATB combined with Example: Example @8 μg/ml; for MIC ATB combined with Example compound: compound @8 μg/ml
Summary of the method: as §1

KPN BAA-1898 = assay type: cell-based, K. pneumoniae; conditions: for MIC ATB combined with Example: Example @8 μg/ml
Summary of the method: as §1

KPN 6299 = assay type: cell-based, K. pneumoniae; conditions: for MIC ATB combined with Example: Example @8 μg/ml
Summary of the method: as §1

KPN UFR42 = assay type: cell-based, K. pneumoniae; conditions: for MIC ATB combined with Example / MIC ATB combined with Example compound: KPN UFR42; for MIC ATB combined with Example: Example @8 μg/ml; for MIC ATB combined with Example compound: compound @8 μg/ml
Summary of the method: as §1

ECO 190317 = assay type: cell-based, E. coli; conditions: for MIC ATB combined with Example: Example @8 μg/ml
Summary of the method: as §1

ECO UFR39 = assay type: cell-based, E. coli; conditions: for MIC ATB combined with Example / MIC ATB combined with Example compound: ECO UFR39; for MIC ATB combined with Example: Example @8 μg/ml; for MIC ATB combined with Example compound: compound @8 μg/ml
Summary of the method: as §1

SAU 29213 = assay type: cell-based, S. aureus; conditions: for MIC ATB combined with Example / MIC ATB combined with Example compound: SAU 29213; for MIC ATB combined with Example: Example @8 μg/ml; for MIC ATB combined with Example compound: compound @8 μg/ml
Summary of the method: as §1

SPN 49619 = assay type: cell-based, S. pneumoniae; conditions: for MIC ATB combined with Example / MIC ATB combined with Example compound: SPN 49619; for MIC ATB combined with Example: Example @8 μg/ml; for MIC ATB combined with Example compound: compound @8 μg/ml
Summary of the method: as §1

ECL P99 = assay type: cell-based, E. cloacae; conditions: for MIC ATB combined with Example: Example @8 μg/ml
Summary of the method: as §1

O=C1N2CC(n3cccn3)=CC(C2)N1OC(F)(F)C(=O)[O-].[Li+] (stereo not shown) [Example 13, lithium difluoro-(7-oxo-3-pyrazol-1-yl-1,6-diaza-bicyclo[3.2.1]oct-3-en-6-yloxy)-acetate]
MIC ATB combined with Example (PAE UFR48; ATB ATM): 8 µg/mL
MIC ATB combined with Example (PAE UFR48; ATB FEP): 32 µg/mL
MIC ATB combined with Example (PAE UFR48; ATB FOS): 16 µg/mL
MIC ATB combined with Example (PAE UFR48; ATB MEM): 0.5 µg/mL
MIC ATB combined with Example (PAE UFR48; ATB PIP): 32 µg/mL
MIC ATB combined with Example compound (PAE UFR48; MIC of CIP): 4 µg/mL
MIC ATB combined with Example compound (PAE UFR48; MIC of CPO): >32 µg/mL
MIC ATB combined with Example (PAE UFR90; ATB ATM): 16 µg/mL
MIC ATB combined with Example (PAE UFR90; ATB FEP): 8 µg/mL
MIC ATB combined with Example (PAE UFR90; ATB FOS): 8 µg/mL
MIC ATB combined with Example (PAE UFR90; ATB MEM): 2 µg/mL
MIC ATB combined with Example (PAE UFR90; ATB PIP): >32 µg/mL
MIC ATB combined with Example compound (PAE UFR90; MIC of CIP): 1 µg/mL
MIC ATB combined with Example compound (PAE UFR90; MIC of CPO): 16 µg/mL
MIC ATB combined with Example (PAE 105250; ATB ATM): 8 µg/mL
MIC ATB combined with Example (PAE 105250; ATB FEP): 8 µg/mL
MIC ATB combined with Example (PAE 105250; ATB FOS): >128 µg/mL
MIC ATB combined with Example (PAE 105250; ATB MEM): 2 µg/mL
MIC ATB combined with Example (PAE 105250; ATB PIP): 32 µg/mL
MIC ATB combined with Example compound (PAE 105250; MIC of CIP): 0.063 µg/mL
MIC ATB combined with Example compound (PAE 105250; MIC of CPO): 16 µg/mL
MIC ATB combined with Example (KPN BAA-1898; ATB ATM, KPN BAA-1898): 4 µg/mL
MIC ATB combined with Example (KPN BAA-1898; ATB FEP, KPN BAA-1898): 0.25 µg/mL
MIC ATB combined with Example (KPN BAA-1898; ATB FOS, KPN BAA-1898): 4 µg/mL
MIC ATB combined with Example (KPN BAA-1898; ATB MEM, KPN BAA-1898): 0.25 µg/mL
MIC ATB combined with Example (KPN BAA-1898; ATB PIP, KPN BAA-1898): 32 µg/mL
MIC (KPN BAA-1898; Klebsiella pneumoniae, BAA1898): 16 µg/mL
MIC ATB combined with Example compound (KPN BAA-1898; MIC of CIP, compound @8 μg/ml, KPN BAA-1898): 16 µg/mL
MIC ATB combined with Example (KPN 6299; ATB ATM): <=0.031 μg/mL
MIC ATB combined with Example (KPN 6299; ATB FEP): 0.063 µg/mL
MIC ATB combined with Example (KPN 6299; ATB FOS): 8 µg/mL
MIC ATB combined with Example (KPN 6299; ATB MEM): <=0.031 μg/mL
MIC ATB combined with Example (KPN 6299; ATB PIP): 0.5 µg/mL
MIC ATB combined with Example compound (KPN 6299; MIC of CIP, compound @8 μg/ml): 32 µg/mL
MIC ATB combined with Example (KPN UFR42; ATB ATM): 0.125 µg/mL
MIC ATB combined with Example (KPN UFR42; ATB FEP): <=0.031 μg/mL
MIC ATB combined with Example (KPN UFR42; ATB FOS): 4 µg/mL
MIC ATB combined with Example (KPN UFR42; ATB MEM): >32 µg/mL
MIC ATB combined with Example (KPN UFR42; ATB PIP): >32 µg/mL
MIC (KPN UFR42; Klebsiella pneumoniae): 16 µg/mL
MIC ATB combined with Example compound (KPN UFR42; MIC of CIP): >32 µg/mL
MIC ATB combined with Example compound (KPN UFR42; MIC of CPO): 32 µg/mL
MIC ATB combined with Example (ECO 190317; ATB ATM, ECO 190317): <0.031 µg/mL
MIC ATB combined with Example (ECO 190317; ATB FEP, ECO 190317): <0.031 µg/mL
MIC ATB combined with Example (ECO 190317; ATB FOS, ECO 190317): <0.125 µg/mL
MIC ATB combined with Example (ECO 190317; ATB MEM, ECO 190317): <0.031 µg/mL
MIC ATB combined with Example (ECO 190317; ATB PIP, ECO 190317): <0.031 µg/mL
MIC (ECO 190317; Escherichia coli): 4 µg/mL
MIC ATB combined with Example compound (ECO 190317; MIC of CIP, compound @8 μg/ml, ECO 190317): <0.031 µg/mL
MIC ATB combined with Example (ECO UFR39; ATB ATM): <0.031 µg/mL
MIC ATB combined with Example (ECO UFR39; ATB FEP): <0.031 µg/mL
MIC ATB combined with Example (ECO UFR39; ATB FOS): <0.125 µg/mL
MIC ATB combined with Example (ECO UFR39; ATB MEM): <=0.031 μg/mL
MIC ATB combined with Example (ECO UFR39; ATB PIP): <0.031 µg/mL
MIC (ECO UFR39; Escherichia coli): 8 µg/mL
MIC ATB combined with Example compound (ECO UFR39; MIC of CIP): <0.031 µg/mL
MIC ATB combined with Example compound (ECO UFR39; MIC of CPO): <0.031 µg/mL
MIC ATB combined with Example (SAU 29213; ATB ATM): >32 µg/mL
MIC ATB combined with Example (SAU 29213; ATB FEP): 2 µg/mL
MIC ATB combined with Example (SAU 29213; ATB FOS): 0.5 µg/mL
MIC ATB combined with Example (SAU 29213; ATB MEM): <=0.031 μg/mL
MIC ATB combined with Example (SAU 29213; ATB PIP): 1 µg/mL
MIC ATB combined with Example compound (SAU 29213; MIC of CIP): 0.25 µg/mL
MIC ATB combined with Example compound (SAU 29213; MIC of CLI): 0.063 µg/mL
MIC ATB combined with Example compound (SAU 29213; MIC of CPO): 0.5 µg/mL
MIC ATB combined with Example compound (SAU 29213; MIC of DAP): 1 µg/mL
MIC ATB combined with Example compound (SAU 29213; MIC of ERY): 0.125 µg/mL
MIC ATB combined with Example compound (SAU 29213; MIC of LZD): 1 µg/mL
MIC ATB combined with Example compound (SAU 29213; MIC of RIF): 0.0078 µg/mL
MIC ATB combined with Example compound (SAU 29213; MIC of SYN): 0.25 µg/mL
MIC ATB combined with Example compound (SAU 29213; MIC of VAN): 1 µg/mL
MIC (SAU 29213; Staphylococcus aureus, MSSA): 32 µg/mL
MIC ATB combined with Example (SPN 49619; ATB ATM): >32 µg/mL
MIC ATB combined with Example (SPN 49619; ATB FEP): 0.063 µg/mL
MIC ATB combined with Example (SPN 49619; ATB FOS): 32 µg/mL
MIC ATB combined with Example (SPN 49619; ATB MEM): <=0.031 μg/mL
MIC ATB combined with Example (SPN 49619; ATB PIP): 0.5 µg/mL
MIC ATB combined with Example compound (SPN 49619; MIC of CIP): 0.5 µg/mL
MIC ATB combined with Example compound (SPN 49619; MIC of CLI): 0.063 µg/mL
MIC ATB combined with Example compound (SPN 49619; MIC of CPO): <=0.031 μg/mL
MIC ATB combined with Example compound (SPN 49619; MIC of DAP): 0.5 µg/mL
MIC ATB combined with Example compound (SPN 49619; MIC of ERY): 0.063 µg/mL
MIC ATB combined with Example compound (SPN 49619; MIC of LZD): 1 µg/mL
MIC ATB combined with Example compound (SPN 49619; MIC of RIF): 0.0078 µg/mL
MIC ATB combined with Example compound (SPN 49619; MIC of SYN): 0.5 µg/mL
MIC ATB combined with Example compound (SPN 49619; MIC of VAN): 0.25 µg/mL
MIC (SPN 49619; Streptococcus pneumoniae): > 32 µg/mL
MIC ATB combined with Example (ECL P99; ATB ATM, ECL P99): 2 µg/mL
MIC ATB combined with Example (ECL P99; ATB FEP, ECL P99): <=0.031 μg/mL
MIC ATB combined with Example (ECL P99; ATB FOS, ECL P99): 32 µg/mL
MIC ATB combined with Example (ECL P99; ATB MEM, ECL P99): <=0.031 μg/mL
MIC ATB combined with Example (ECL P99; ATB PIP, ECL P99): 4 µg/mL
MIC (ECL P99; Enterobacter cloacae): 16 µg/mL
MIC ATB combined with Example compound (ECL P99; MIC of CIP, compound @8 μg/ml, ECL P99): <=0.031 μg/mL
